This experiment addresses T1, human GnRH receptor (Homo sapiens, UniProt P30968).
T1 construct: expressed in transfected cells; host or cells: RBL cells, stably transfected (in general)
T1 sequence (P30968 1-328): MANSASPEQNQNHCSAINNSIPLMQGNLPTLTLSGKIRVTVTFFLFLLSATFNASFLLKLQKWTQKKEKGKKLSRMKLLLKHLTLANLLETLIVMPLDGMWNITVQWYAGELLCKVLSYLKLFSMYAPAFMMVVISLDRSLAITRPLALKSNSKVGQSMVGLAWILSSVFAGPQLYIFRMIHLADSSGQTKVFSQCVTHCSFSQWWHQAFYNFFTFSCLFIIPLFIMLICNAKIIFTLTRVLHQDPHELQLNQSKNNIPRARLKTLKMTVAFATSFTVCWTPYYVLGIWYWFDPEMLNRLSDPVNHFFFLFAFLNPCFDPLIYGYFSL
Kind of experiment: Peptide competition radioligand binding displacement assay, human GnRH receptor membranes. The conditions noted are these: one or more of the peptide competition human receptor binding assays. On the procedure:
cDNA's of human, rhesus macaque, rabbit, dog and rat GnRH receptors are cloned into pcDNA3.1 (+) (Invitrogen). Full length sequences of all receptors are confirmed by DNA sequencing. HEK 293, CHO, COS-7, or rat basophilic leukemia (RBL) cells are stably transfected with human, rat, or macaque GnRH receptors and high expressing single cell clones (Bmax≧0.4 pMol/mg membrane protein) are isolated and maintained in Dulbecco's Modified Eagles Medium (DMEM) with following supplements: 10 mM HEPES; 2 mM L-glutamine; 1 mM Sodium Pyruvate; 50 U/mL penicillin, 50 μg/mL streptomycin; 10% Heat-inactivated Fetal Bovine Serum and 200 μg/mL Geneticin (G-418-Sulfate). Non-essential amino acids (0.1 mM) (Irvine Scientific; Santa Ana, Calif.) are included in the RBL cell media.
In general, initial peptide radioligand binding assays are carried out using membranes from stably transfected RBL cells. RBL stable clones are found to more consistently express high levels of GnRH receptor and are therefore used for subsequent binding studies as well as Ca^++ flux and inositol phosphate accumulation assays. Transiently transfected COS-7 cells are used for preparation of membranes containing GnRH receptors from multiple species (as well as those of mutant receptors for other studies) because of the convenience for rapidly analyzing multiple receptors.
HEK293 cells stably transfected with the human GnRH receptor are grown for two days after achieving confluence then are harvested by striking tissue culture flasks against a firm surface. Cells are collected by centrifugation at 1000 g for 5 minutes. Cell pellets are resuspended in 5% sucrose and homogenized using a polytron homogenizer for two 15 second homogenization steps. Cell homogenates are then centrifuged for 5 minutes at 3000 g to remove nuclei and the supernatant subsequently centrifuged for 30 minutes at 44,000 g to collect the membrane fraction. The membrane pellet is resuspended in GnRH binding buffer (10 mM HEPES, pH 7.5, 150 mM NaCl and 0.1% BSA) and aliquots immediately snap-frozen in liquid nitrogen and stored at −80° C. Protein content of the membrane suspension is determined using the Bio-Rad protein assay kit (Bio-Rad).
RBL cells stably transfected with the human GnRH receptor are grown to 80% confluency prior to harvesting. The cells are incubated at 37° C. for 10 min in 0.5 mM EDTA/PBS (Ca^++, Mg^++ free), and are dislodged from the plate by gentle rapping of the flasks. Cells are collected and pelleted by centrifugation at 1000 g for 5 minutes. Cell pellets are resuspended in buffer (DPBS supplemented with 10 mM MgCl2, 2 mM EGTA, pH=7.4), and cell lysis is performed using a pressure cell and applying N2 at a pressure of 900 psi for 30 min at 4° C. Unbroken cells and larger debris were removed by centrifugation at 1200 g for 10 min at 4° C. The cell membrane supernatant is then centrifuged at 45,000 g and the resulting membrane pellet is resuspended in assay buffer and homogenized on ice using a tissue homogenizer. Protein concentrations are determined using the Coomassie Plus Protein Reagent kit. Membranes are aliquoted and stored at −80° C. until ready for use.
COS-7 cells transiently transfected with GnRH receptors from different species (human, macaque, dog, rabbit, rat) or mutant GnRH receptors are prepared by bulk electroporation. COS-7 cells are obtained from American Type Cell Culture (Manassas, Va.) and are maintained in Dulbeccos's modified Eagle's medium (DMEM) (MediaTech Inc., Herndon, Va.) containing 10% fetal bovine serum, 10 mM HEPES, 2 mM L-glutamine, 1 mM sodium pyruvate, 50 U/mL penicillin, 50 μg/mL streptomycin. COS-7 cells are seeded in 500 cm^2 tissue culture plates and grown to confluency prior to cell transfection. […]

SMILES strings stand for the structures.

The Ki is a measure of affinity in units of concentration, obtained from inhibition or displacement. Read a high Ki as lower affinity. As for `COc1cccc(C)c1N(C)C(=O)c1ccc(Cl)c(-c2cnc(C(F)(F)F)cc2C#N)c1` [2-35], the Ki is ≤ 100 nM.
`Cc1cc(Cl)ncc1-c1cc(C(=O)N(C)c2cccc(F)c2OCCCC(=O)O)ccc1Cl` [4-4]: the Ki is ≤ 100 nM.
For `COc1ccccc1N(C)C(=O)c1cc(-c2cnc(C(F)(F)F)cc2C#N)c(Cl)cc1OCCCc1ccncc1` [42-9], the Ki is ≤ 100 nM.
Then `CN(C(=O)c1ccc(Cl)c(-c2cnc(C(F)(F)F)cc2C#N)c1)c1ccccc1OCC(C)(C)C(=O)O` [52-1, 3-(2-{[4-Chloro-3-(4-cyano-6-trifluoromethyl-pyridin-3-yl)-benzoyl]-methyl-amino}-phenoxy)-2,2-dimethyl-propionic acid], with ≤ 100 nM; and `COC(=O)CCCOc1ccccc1N(C)C(=O)c1ccc(Cl)c(-c2cnc(Cl)cc2C)c1` [3-2], with ≤ 100 nM.
`COC(=O)COc1ccccc1N(C)C(=O)c1ccc(Cl)c(-c2cnc(C)cc2Cl)c1` [3-4]: the Ki is ≤ 100 nM.
In the case of `COc1ccccc1N(C)C(=O)c1ccc(Cl)c(-c2ccc(C(F)(F)F)cc2C#N)c1` [2-53], the Ki was ≤ 100 nM.
Take `COc1cc(Cl)c(-c2cnc(C(F)(F)F)cc2C#N)cc1C(=O)N(C)Cc1ccccc1` [39-15]: the Ki was ≤ 100 nM.
With `CN(C(=O)c1ccc(Cl)c(-c2cnc(C(F)(F)F)cc2C#N)c1)c1ccccc1OCCOc1ccccn1` [51-1, 4-Chloro-3-(4-cyano-6-trifluoromethyl-pyridin-3-yl)-N-methyl-N-{2-[2-(pyridin-2-yloxy)-ethoxy]-phenyl}-benzamide], the Ki is ≤ 100 nM.
With `COc1cc(Cl)c(-c2cnc(C(F)(F)F)cc2C#N)cc1C(=O)N(C)c1ccccc1OCC(F)(F)F` [39-9] the figure was ≤ 100 nM; with `Cc1cc(Cl)ncc1-c1cc(C(=O)N(C)c2ccccc2CCCC(=O)O)ccc1Cl` [14-1, 4-(2-{[4-Chloro-3-(6-chloro-4-methyl-pyridin-3-yl)-benzoyl]-methyl-amino}-phenyl)-butyric acid], ≤ 100 nM.
With `CN(C(=O)c1ccc(Cl)c(-c2cnc(C(F)(F)F)cc2C#N)c1)c1ccccc1OCCc1n[nH]c(=O)[nH]1` [40-1, 4-Chloro-3-(4-cyano-6-trifluoromethyl-pyridin-3-yl)-N-methyl-N-{2-[2-(5-oxo-4,5-dihydro-1H-[1,2,4]triazol-3-yl)-ethoxy]-phenyl}-benzamide] the figure was ≤ 100 nM.
Turning to `COC(=O)CCCOc1cccc(C)c1N(C)C(=O)c1ccc(Cl)c(-c2cnc(C#N)cc2C)c1` [3-9], the inhibition constant (Ki) was ≤ 100 nM.
Turning to `COc1cccc(F)c1N(C)C(=O)c1cc(-c2cnc(C(F)(F)F)cc2C#N)c(Cl)cc1OCCCC(=O)O` [34-26], the Ki was ≤ 100 nM.
In the case of `COc1ccccc1N(C(=O)c1ccc(Cl)c(-c2ncc(Cl)cc2Cl)c1)C1CC1` [18-1, 4-Chloro-N-cyclopropyl-3-(3,5-dichloro-pyridin-2-yl)-N-(2-methoxy-phenyl)-benzamide], the Ki was ≤ 100 nM.
In the case of `CN(C(=O)c1cc(-c2cnc(C(F)(F)F)cc2C#N)c(Cl)cc1OCCCC(=O)O)c1ccccc1OC(F)(F)F` [34-3], the Ki is ≤ 100 nM.
`COc1c(Cl)cccc1N(C)C(=O)c1ccc(Cl)c(-c2cnc(Cl)cc2C)c1` [2-42]: the Ki is ≤ 100 nM.
Turning to `Cc1cc(Cl)ncc1-c1cc(C(=O)N(C)c2ccccc2F)ccc1Cl` [2-36], the Ki is ≤ 100 nM.
Then `COc1ccccc1N(C)C(=O)c1cc(-c2cnc(C(F)(F)F)cc2C#N)c(Cl)cc1OCCN(C)C(C)=O` [47-2], with ≤ 100 nM; and `COc1ccccc1N(C)C(=O)c1ccc(Cl)c(-c2ccc(Cl)cc2Cl)c1` [2-54], with ≤ 100 nM; and `CC(C)CCN(C)C(=O)c1cc(-c2cnc(C(F)(F)F)cc2C#N)c(Cl)cc1OCCCC(=O)O` [34-23], with ≤ 100 nM.
As to `COc1ccccc1N(C)C(=O)c1cc(-c2cnc(C(F)(F)F)cc2C#N)c(Cl)cc1OCCc1cnccn1` [46-3], the Ki was ≤ 100 nM.
In the case of `COc1cc(Cl)c(-c2cnc(C(F)(F)F)cc2C#N)cc1C(=O)N(C)Cc1ccccc1F` [39-16], the Ki is ≤ 100 nM.
Turning to `Cc1cc(Cl)c(-c2cc(C(=O)N(C)c3cccc(C)c3C)ccc2Cl)cn1` [2-22], the Ki was ≤ 100 nM.
Then `CN(C(=O)c1ccc(Cl)c(-c2nc3ccccc3cc2C#N)c1)c1ccccc1CCCC(=O)O` [15-1, 4-(2-{[4-Chloro-3-(3-cyano-quinolin-2-yl)-benzoyl]-methyl-amino}-phenyl)-butyric acid], with ≤ 100 nM; and `CN(C(=O)c1ccc(Cl)c(-c2cnc(C(F)(F)F)cc2C#N)c1)c1ccccc1OCCNC(=O)NS(C)(=O)=O` [41-1, 4-Chloro-3-(4-cyano-6-trifluoromethyl-pyridin-3-yl)-N-{2-[2-(3-methylsulfonyl-ureido)-ethoxy]-phenyl}-N-methyl-benzamide], with ≤ 100 nM; and `COc1cc(C)c(-c2cc(C(=O)N(C)c3c(C)cccc3OC)ccc2Cl)cn1` [2-26], with ≤ 100 nM.
In the case of `COc1c(Cl)cccc1N(C)C(=O)c1cc(-c2cnc(C(F)(F)F)cc2C#N)c(Cl)cc1OCCCC(=O)O` [34-6], the Ki is ≤ 100 nM.
As for `COC(=O)COc1ccccc1N(C)C(=O)c1ccc(Cl)c(-c2cnc(C#N)cc2C)c1` [3-3], the Ki was ≤ 100 nM.
For `COc1cc(C)c(-c2cc(C(=O)N(C)c3cccc(Cl)c3OC)ccc2Cl)cn1` [2-45], the Ki is ≤ 100 nM.
With `Cc1cc(C#N)ncc1-c1cc(C(=O)N(C)c2c(C)cccc2OCCCO)ccc1Cl` [9-5] the figure was ≤ 100 nM.
With `COC(=O)c1ccccc1N(C)C(=O)c1ccc(Cl)c(-c2ncc(C(F)(F)F)cc2Cl)c1` [2-75], the Ki is ≤ 100 nM.
For the compound `COc1ccccc1N(C)C(=O)c1cc(-c2cnc(C(F)(F)F)cc2C#N)c(Cl)cc1CC(=O)O` [44-1, {5-Chloro-4-(4-cyano-6-trifluoromethyl-pyridin-3-yl)-2-[(2-methoxy-phenyl)-methyl-carbamoyl]-phenyl}-acetic acid], the Ki is ≤ 100 nM.
In the case of `COC(=O)CCCOc1cccc(C)c1N(C)C(=O)c1ccc(Cl)c(-c2cnc(Cl)cc2C)c1` [3-5], the Ki is ≤ 100 nM.
In the case of `CN(C(=O)c1ccc(Cl)c(-c2cnc(C(F)(F)F)cc2C#N)c1)c1ccccc1OCCC(=O)N1CCNCC1` [53-2, 4-Chloro-3-(4-cyano-6-trifluoromethyl-pyridin-3-yl)-N-methyl-N-[2-(3-oxo-3-piperazin-1-yl-propoxy)-phenyl]-benzamide], the Ki is ≤ 100 nM.
For the compound `COc1ccccc1N(C)C(=O)c1ccc(Cl)c(-c2cnc(C)cc2Cl)c1` [2-8], the Ki is ≤ 100 nM.
In the case of `Cc1cccc(N(C)C(=O)c2ccc(Cl)c(-n3c(C)cc(C(F)(F)F)nc3=O)c2)c1C` [30-14], the Ki was ≤ 100 nM.
Take `COCCN(C)C(=O)c1cc(-c2cnc(C(F)(F)F)cc2C#N)c(Cl)cc1OCCCC(=O)O` [34-24]: the Ki was ≤ 100 nM.
As to `COc1ccccc1N(C)C(=O)c1cc(-c2cnc(C(F)(F)F)cc2C#N)c(Cl)cc1OCCN1CCC[C@H]1C(=O)O` [49-3], the Ki is ≤ 100 nM.
As to `COc1cc(Cl)c(-c2cnc(C(F)(F)F)cc2C#N)cc1C(=O)N(C)c1ccccc1OC` [38-1, 4-Chloro-5-(4-cyano-6-trifluoromethyl-pyridin-3-yl)-2-methoxy-N-(2-methoxy-phenyl)-N-methyl-benzamide], the Ki was ≤ 100 nM.

(Values after patent publication US8481738B2, “Gonadotropin-releasing hormone receptor antagonists and methods relating thereto” (Neurocrine Biosciences, Inc., priority 2007, dated 2013).)
